We go through 23 compounds from ChEMBL document CHEMBL4325890, “Novel tyrosyl-DNA phosphodiesterase 1 inhibitors enhance the therapeutic impact of topoteсan on in vivo tumor models” (Eur J Med Chem, 2019).

Structures are written as SMILES.

The target in data set [1] is T1, Tyrosyl-DNA phosphodiesterase 1 (Homo sapiens, UniProt Q9NUW8). In words: Inhibition of Tdp1 (unknown origin).
Data set [2] concerns the target T1, Tyrosyl-DNA phosphodiesterase 1.
Data set [3] shares this target. In words: Binding affinity to recombinant human Tdp1 (149 to 608 residues) expressed in Escherichia coli BL21 (DE3) by tryptophan fluorescence quenching assay.
A short description of data set [4]: Stability of the compound assessed as imine hydrolysis at pH 1 HCl solution incubated for 24 hrs under shaking condition. The format is physicochemical. Conditions: buffer, pH 1, 24 h.
A short description of data set [5]: Toxicity in C57BL/6 mouse implanted with C57BL mouse LLC cells assessed as change in body weight at 100 mg/kg, ig administered as single dose (reference value: 90%). Conditions: in vivo, po. The format is organism-based.
The nature of data set [6]: Toxicity in C57BL/6 mouse implanted with C57BL mouse LLC cells assessed as liver index at 100 mg/kg, ig administered as single dose measured 17 days post-transplantation (reference value: 5.8 +/- 0.38%). Conditions: in vivo, po, 408 h. Format: organism-based.
Data set [7] is described as follows: Toxicity in C57BL/6 mouse implanted with C57BL mouse LLC cells assessed as state and behavioral changes at 100 mg/kg, ig administered as single dose in presence of topotecan. Format: organism-based. The following applies: in vivo, po.
A short description of data set [8]: Acute toxicity in ig dosed specific pathogen free CD-1 mouse. The format is organism-based. Conditions: in vivo, po.
For data set [9], the system named is Lewis lung carcinoma cell line. The data set can be described thus: Potentiation of topotecan-induced anticancer activity against C57BL mouse LLC cells implanted in C57BL/6 mouse assessed as tumor weight at 100 mg/kg, ig administered as single dose measured 17 days post transplantation (reference value: 2.9 +/- 0.28 g). The format is functional.
Data set [10] can be described thus: Toxicity in C57BL/6 mouse implanted with C57BL mouse LLC cells assessed as death at 100 mg/kg, ig in presence of topotecan. The format is organism-based. The following applies: in vivo, po.
The nature of data set [11]: Toxicity in C57BL/6 mouse implanted with C57BL mouse LLC cells assessed as spleen weight at 100 mg/kg, ig administered as single dose measured 17 days post-transplantation in presence of topotecan (reference value: 252 +/- 12 mg). Conditions: in vivo, po, 408 h. The format is organism-based.
Data set [12] is described as follows: Toxicity in C57BL/6 mouse implanted with C57BL mouse LLC cells assessed as spleen weight at 100 mg/kg, ig administered as single dose measured 17 days post-transplantation (reference value: 252 +/- 12 mg). The format is organism-based. Conditions: in vivo, po, 408 h.
Data set [13] can be described thus: Toxicity in C57BL/6 mouse implanted with C57BL mouse LLC cells assessed as liver index at 100 mg/kg, ig administered as single dose measured 17 days post-transplantation in presence of topotecan (reference value: 5.8 +/- 0.38%). The format is organism-based. The following applies: in vivo, po, 408 h.
Data set [14] in a line: Cytotoxicity against human MCF7 cells after 3 days by [3H]-thymidine incorporation assay. Format: cell-based.
Data set [15] has as its system Lewis lung carcinoma cell line. In words: Cytotoxicity against C57BL mouse LLC cells implanted in C57BL/6 mouse assessed as tumor weight at 100 mg/kg, ig administered as single dose measured 17 days post transplantation (reference value: 3.3 +/- 0.28 g). Format: organism-based. Conditions: in vivo, po, 408 h.
The nature of data set [16]: Toxicity in C57BL/6 mouse implanted with C57BL mouse LLC cells assessed as change in body weight at 100 mg/kg, ig administered as single dose in presence of topotecan (reference value: 90%). The format is organism-based. Conditions: in vivo, po.
The nature of data set [17]: Toxicity in C57BL/6 mouse implanted with C57BL mouse LLC cells assessed as death at 100 mg/kg, ig. The format is organism-based. Conditions: in vivo, po.
A short description of data set [18]: Toxicity in C57BL/6 mouse implanted with C57BL mouse LLC cells assessed as state and behavioral changes at 100 mg/kg, ig administered as single dose. Conditions: in vivo, po. Format: organism-based.
Data set [19] in a line: Cytotoxicity against mouse LLTC cells after 3 days by [3H]-thymidine incorporation assay. Format: cell-based.
Data set [20] has as its system Lewis lung carcinoma cell line. The data set can be described thus: Cytotoxicity against C57BL mouse LLC cells implanted in C57BL/6 mouse assessed as effect on number of metastatic nodules in lung at 100 mg/kg, ig administered as single dose measured 17 days post transplantation by microscopic analysis. Format: organism-based. Conditions: in vivo, po, 408 h.
Data set [21] addresses T1, Tyrosyl-DNA phosphodiesterase 1. This is another data set of the same source.
Data set [22] can be described thus: Oral bioavailability in rabbit at 20 mg/kg by HPLC analysis. The format is ADME, organism-based, Oryctolagus cuniculus. Conditions: in vivo.
A short description of data set [23]: Toxicity in C57BL/6 mouse implanted with C57BL mouse LLC cells assessed as liver index at 1.5 mg/kg, ip administered on day 4, 5, 7 and 9 post-transplantation measured 17 days post-transplantation (reference value: 5.8 +/- 0.38%). Format: organism-based. The following applies: in vivo, 408 h.
Data set [24] can be described thus: Toxicity in C57BL/6 mouse implanted with C57BL mouse LLC cells assessed as spleen weight at 1.5 mg/kg, ip administered on day 4, 5, 7 and 9 post-transplantation measured 17 days post-transplantation (reference value: 252 +/- 12 mg). The format is organism-based. Conditions: in vivo, 408 h.
A short description of data set [25]: Toxicity in C57BL/6 mouse implanted with C57BL mouse LLC cells assessed as change in body weight at 1.5 mg/kg, ip administered on day 4, 5, 7 and 9 post-transplantation (reference value: 90%). Conditions: in vivo. Format: organism-based.
The nature of data set [26]: Toxicity in C57BL/6 mouse implanted with C57BL mouse LLC cells assessed as state and behavioral changes at 1.5 mg/kg, ip administered on day 4, 5, 7 and 9 post-transplantation. The format is organism-based. Conditions: in vivo.
The nature of data set [27]: Toxicity in C57BL/6 mouse implanted with C57BL mouse LLC cells assessed as death at 1.5 mg/kg, ip administered on day 4, 5, 7 and 9 post-transplantation. The format is organism-based. Conditions: in vivo.

T1 sequence (Q9NUW8 whole entry): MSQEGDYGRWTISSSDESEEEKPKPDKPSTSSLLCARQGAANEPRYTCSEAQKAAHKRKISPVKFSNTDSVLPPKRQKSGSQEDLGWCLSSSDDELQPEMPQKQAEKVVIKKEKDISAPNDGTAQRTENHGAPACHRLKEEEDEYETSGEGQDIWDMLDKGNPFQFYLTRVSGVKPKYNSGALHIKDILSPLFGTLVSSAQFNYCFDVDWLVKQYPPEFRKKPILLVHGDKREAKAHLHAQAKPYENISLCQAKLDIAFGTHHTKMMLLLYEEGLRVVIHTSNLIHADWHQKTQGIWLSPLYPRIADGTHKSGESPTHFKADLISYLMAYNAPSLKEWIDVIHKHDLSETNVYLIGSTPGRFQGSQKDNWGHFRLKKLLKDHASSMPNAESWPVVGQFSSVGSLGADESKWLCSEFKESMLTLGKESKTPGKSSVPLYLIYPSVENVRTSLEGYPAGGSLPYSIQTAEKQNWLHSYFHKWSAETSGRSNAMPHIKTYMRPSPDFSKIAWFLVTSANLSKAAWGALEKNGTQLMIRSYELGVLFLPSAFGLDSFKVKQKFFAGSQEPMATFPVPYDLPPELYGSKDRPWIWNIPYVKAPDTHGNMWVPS

With `Cc1ccc(C)n1-c1ccc(Cl)c(C(=O)O)c1`, the IC50 in data set [1] was determined as 110 nM.

On to `COc1cc(/C=N/Nc2nc(-c3c(O)c(C)c(O)c4c3OC3=CC(O)=C(C(C)=O)C(=O)[C@@]34C)cs2)ccc1O`, for which half-maximal inhibition in data set [2] (IC50) was put at 192 nM. In data set [3], the Kd turned out to be 44.6 µM. Moreover, in data set [4], the Stability entry was “Stable”.

For the compound `CC(=O)C1=C(O)C=C2Oc3c(-c4csc(N/N=C/c5ccc(Br)cc5)n4)c(O)c(C)c(O)c3[C@@]2(C)C1=O`, the Activity is 88.2% in data set [5]; 6% in data set [6]; “Non-Toxic” in data set [7]; 1.4 g in [9]; “Non-Toxic” in data set [10]; 326 mg in [11]. Moreover, the Activity in data set [12] is 281 mg; in data set [13], 6.5%; in [15] it was 3.3 g; in data set [16] it was 89.7%; in data set [17], “Non-Toxic”; in [18], “Non-Toxic”. Further, in data set [20], the Activity result is given as “Non-Toxic”. For the same compound, the Kd in data set [3] was 7.02 µM. Besides, the LD50 in [8] is over 5000 mg/kg. The Stability result in data set [4] is “Stable”. For the same compound, the results for the half-maximal cytotoxic concentration (CC50) at 72 h in data set [14] and in data set [19] were 1690 nM and 1670 nM, respectively.

Consider `CC(=O)C1=C(O)C=C2Oc3c(-c4csc(N/N=C/c5ccc(Cl)cc5)n4)c(O)c(C)c(O)c3[C@@]2(C)C1=O`, for which the IC50 in [2] came out at 68 nM. In addition, in data set [3], the Kd is 9.46 µM. Also, the Stability result in data set [4] is “Stable”.

For the compound `CC(=O)C1=C(O)C=C2Oc3c(-c4csc(N/N=C/c5ccc([N+](=O)[O-])cc5)n4)c(O)c(C)c(O)c3[C@@]2(C)C1=O`, it took 35 nM to reach half-maximal inhibition in data set [2] (IC50). The Kd in data set [3] was found to be 10.7 µM. Moreover, the Stability entry in data set [4] is listed as “Stable”.

As for `CC(=O)C1=C(O)C=C2Oc3c(-c4csc(-c5cccnc5)n4)c(O)c(C)c(O)c3[C@@]2(C)C1=O`, in [2], half-maximal inhibition (IC50) was put at 1210 nM. That is a single-digit micromolar value.

In data set [2], `COc1ccc(/C=N/Nc2nc(-c3c(O)c(C)c(O)c4c3OC3=CC(O)=C(C(C)=O)C(=O)[C@@]34C)cs2)cc1` registered an IC50 of 158 nM. Further, the Kd in [3] came to 8.65 µM. The Stability entry in data set [4] is “Stable”.

In [2], `CC(C)=CCCC(C)CCNC1C2CC3CC(C2)CC1C3` (stereo not given) showed an IC50 of 3500 nM. In other words, the single-digit micromolar range.

Compound `CC(=O)C1=C(O)C=C2Oc3c(-c4csc(-c5ccccc5)n4)c(O)c(C)c(O)c3[C@@]2(C)C1=O` had an IC50 in data set [2] of 1120 nM. This IC50 lies about 3.1-fold lower than the previous one.

Take `CC(=O)C1=C(O)C=C2Oc3c(-c4csc(Nc5ccccc5)n4)c(O)c(C)c(O)c3[C@@]2(C)C1=O`: in data set [2], half-maximal inhibition (IC50) required 610 nM.

Take `COc1cc(/C=C2\SC(=S)N(c3ccc([N+](=O)[O-])cc3)C2=O)cc(Br)c1O`: the IC50 in [21] worked out at 1080 nM.

As for `CNc1nc(-c2c(O)c(C)c(O)c3c2OC2=CC(O)=C(C(C)=O)C(=O)[C@@]23C)cs1`, in data set [2], the IC50 worked out at 5900 nM.

`CC(=O)c1c([O-])c(C)c([O-])c2c1OC1=CC(=O)C(C(C)=O)C(=O)[C@@]12C.[Na+].[Na+]` (stereo not given in full): the bioavailability in [22] was 78%.

As to `CC(=O)C1=C(O)C=C2Oc3c(-c4csc(N/N=C/c5ccc(F)cc5)n4)c(O)c(C)c(O)c3[C@@]2(C)C1=O`, the IC50 in data set [2] is 150 nM. Besides, in data set [3], the Kd amounted to 35.2 µM. Besides, the Stability result in [4] is “Stable”.

With `CC(=O)C1=C(O)C=C2Oc3c(-c4csc(N/N=C/c5ccc(O)cc5)n4)c(O)c(C)c(O)c3[C@@]2(C)C1=O`, the IC50 in data set [2] came out at 457 nM. In addition, the Kd in data set [3] came out at 31.1 µM. The Stability entry in data set [4] is “Stable”.

Turning to `CC(=O)C1=C(O)C=C2Oc3c(-c4csc(N/N=C/c5ccccc5)n4)c(O)c(C)c(O)c3[C@@]2(C)C1=O`, the IC50 in [2] amounted to 172 nM. Besides, in data set [3], the Kd was 7.14 µM. Further, in data set [4], the Stability result is “Stable”.

Compound `C=CCNc1nc(-c2c(O)c(C)c(O)c3c2OC2=CC(O)=C(C(C)=O)C(=O)[C@@]23C)cs1` registered an IC50 in data set [2] of 1250 nM.

For `CC(=O)C1=C(O)C=C2Oc3c(-c4csc(C)n4)c(O)c(C)c(O)c3[C@@]2(C)C1=O`, the IC50 in [2] is 4100 nM.

`CC(=O)C1=C(O)C=C2Oc3c(C(=O)CSC#N)c(O)c(C)c(O)c3[C@@]2(C)C1=O` yielded an IC50 in data set [1] of 1010 nM.

In data set [2], `CC(=O)C1=C(O)C=C2Oc3c(-c4csc(N/N=C/c5cccc([N+](=O)[O-])c5)n4)c(O)c(C)c(O)c3[C@@]2(C)C1=O` showed an IC50 of 86 nM. In addition, the Kd in [3] was 6.2 µM. Moreover, the Stability entry in [4] is given as “Stable”.

In the case of `CC(=O)C1=C(O)C=C2Oc3c(-c4csc(N)n4)c(O)c(C)c(O)c3[C@@]2(C)C1=O`, in data set [2], half-maximal inhibition (IC50) was put at 3800 nM.

In data set [2], `CC(=O)C1=C(O)C=C2Oc3c(C(C)=O)c(O)c(C)c(O)c3[C@@]2(C)C1=O` [(+)-USNIC ACID] gave an IC50 of over 50000 nM.

With `CC[C@@]1(O)C(=O)OCc2c1cc1n(c2=O)Cc2cc3c(CN(C)C)c(O)ccc3nc2-1` [TOPOTECAN], the Activity in data set [23] is recorded as 5.8%; in [24], 260 mg; in data set [25] it was 88.1%; in data set [26], “Non-Toxic”; in data set [27], “Non-Toxic”.
